From paper PMC8464850, “Sulfonium Ligands of the α7 nAChR” (Molecules, 2021)
Counter-ions that a name gives are not always drawn.

Columns and labels:
α3β4 = target: T1, α3β4 (Homo sapiens, UniProt P30926+P32297); assay: Activation of heteromeric nAChR by S1: α3β4; type: cell-based
T1 construct: expressed in transfected cells; host or cells: Xenopus laevis oocytes (injected RNA)
Excerpt: Concatamers were used in order to obtain heteromeric receptors with known subunit composition. The β2-6-α4 concatamer was co-expressed with monomeric α4, β2, or α5 to obtain receptors with the composition α4(3)β2(2), α4(2)β2(3), or α4(2)β2(2)α5, respectively. A concatamer of five linked subunits was used to obtain the β3α4 β2α6β2 receptors. The α3β4 receptors were formed from the co-expression of α3 and β4 subunit monomers at equal ratios. Note that the data were initially measured relative to internal ACh control responses for each oocyte (Methods). Responses were subsequently adjusted for the relative values of the ACh controls and the ACh maximum responses for each of the various subtypes, determined in previous experiments.
Figure 6 Activation of heteromeric neuronal nAChR by S1. […] Data are the average peak currents (n = 6–8 oocytes ± SEM), measured relative to initial ACh control responses for each oocyte (concentrations listed in Methods). Responses were subsequently adjusted for the relative values of the ACh controls and the ACh maximum responses for each of the various subtypes, determined in previous experiments. […]
Solutions were applied from 96-well plates via disposable tips. […] The responses were calculated as both peak current amplitudes and net charge, as previously described. […] Multi-cell averages were calculated for comparisons of complex responses. […]

α7 nAChR = target: T2, α7 nAChR (Homo sapiens, UniProt P36544); assay: Inhibition of α7 ACh-evoked responses; type: cell-based; settings: for effect on 60 µM ACh response at 1 mM: compound 1 mM co-applied with 60 µM ACh
T2 construct: expressed in transfected cells; host or cells: Xenopus laevis oocytes (injected RNA)
T2 sequence (P36544 23-502): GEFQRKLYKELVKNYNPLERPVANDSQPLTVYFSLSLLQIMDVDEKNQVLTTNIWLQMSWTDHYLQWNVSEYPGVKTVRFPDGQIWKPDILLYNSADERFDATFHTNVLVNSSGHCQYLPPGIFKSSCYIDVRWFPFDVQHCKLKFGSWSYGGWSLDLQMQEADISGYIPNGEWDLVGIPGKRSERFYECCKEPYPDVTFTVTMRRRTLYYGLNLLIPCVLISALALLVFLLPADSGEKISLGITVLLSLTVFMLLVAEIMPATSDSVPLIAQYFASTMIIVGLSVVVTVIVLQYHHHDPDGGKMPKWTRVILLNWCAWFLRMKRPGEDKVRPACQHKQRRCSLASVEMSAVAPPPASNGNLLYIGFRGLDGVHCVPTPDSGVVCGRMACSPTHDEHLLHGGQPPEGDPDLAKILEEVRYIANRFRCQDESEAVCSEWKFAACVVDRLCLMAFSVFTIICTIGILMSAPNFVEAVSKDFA
Protocol: Figure 4 Effects sulfonium compounds on α7 ACh-evoked net-charge responses. (A) Effects of the sulfonium compounds at 100 µM co-applied with 60 µM relative to responses to 60 µM ACh applied alone. Data are the averages (±SEM) from seven or eight cells under each condition. (B) Effects of select sulfonium compounds at 1 mM co-applied with 60 µM relative to responses to 60 µM ACh applied alone. Data are the averages (±SEM) from seven or eight cells under each condition. Statistical significance was determined by pairwise t-test with p values corrected for multiple comparisons; * p < 0.05, ** p < 0.001.
The sulfonium compounds that were active with TQS but produced little inhibition of ACh response at a concentration of 100 µM were tested as inhibitors of ACh response at a concentration of 1 mM (Figure 4B).
We tested S8 across a range of concentrations for its ability to inhibit 60 µM ACh responses (Figure 5A). Note that we use 60 µM as an ACh control because this concentration gives nearly maximal (93%) net-charge responses, with the time course of the responses roughly following the speed of solution exchange. […] We tested whether inhibition of α7 responses by S8 was surmountable by increasing ACh concentration, consistent with a competitive mechanism of inhibition. However, since α7 responses to concentrations of ACh greater than 60 µM occur more rapidly than solution exchange in the chamber, we first pre-applied 5 µM S8 prior to the co-application of 5 µM S8 with either 60 µM or 1 mM ACh (Figure 5B). The 60 µM net-charge responses were reduced to 28 ± 2% of controls (n = 8) and 60 µM peak currents to 21 ± 3 % controls. The 1 mM net-charge responses were reduced to 56 ± 6 % of those obtained without S8 co-application, although the S8 co-application increased the peak-current amplitudes compared to 60 µM controls from 1.78 ± 0.15 to 3.72 ± 0.81 (n = 8).
Figure 5 Inhibition of α7 ACh-evoked responses by S8. (A) Concentration-response studies of α7 net-charge responses to 60 µM ACh co-applied with increasing concentrations of S8. To confirm the stability of the ACh responses, applications of ACh plus S8 were alternated with applications of ACh alone. Data are the averages of eight cells (±SEM). See text for curve-fit values. (B) Effects of 5 µM S8 on responses to either 60 µM or 1 mM ACh. The traces shown across the top are the averaged raw data from seven cells, each normalized to the peak current of the first ACh control response shown. In order to assure that the S8 was present at 5 µM throughout the ACh-evoked responses, a 30 s pre-application was made of 5 µM S8 alone. The lower traces show averaged responses to 60 µM or 1 mM ACh alone or with the 5 µM S8 pre- and co-application. The details of the data are described in Methods.
Experiments were conducted using OpusXpress 6000A (Molecular Devices, Union City, CA, USA). Both the voltage and current electrodes were filled with 3 M KCl. Oocytes were voltage-clamped at −60 mV at room temperature (24 °C). The oocytes were bath-perfused with Ringer’s solution (115 mM NaCl, 2.5 mM KCl, 1.8 mM CaCl2, 10 mM HEPES, and 1 μM atropine, pH 7.2) at 2 mL/min for α7 receptors, or 4 mL/min for heteromeric nAChR. To evaluate the effects of experimental compounds, responses were compared to control ACh-evoked responses, defined as the average of two initial applications of ACh made before test applications. ACh control concentrations were 60 µM for α7 receptors; 100 µM for α4(3)β2(2) and α3β4 receptors; 30 µM for α4β2α6β2β3 and muscle-type (αβ1εδ) receptors; and 10 µM for α4(3)β2(2) and α4(2)β2(2)α5 receptors.
Solutions were applied from 96-well plates via disposable tips. Drug applications were 12 s in duration, followed by 181 s washout periods for α7 receptors, or 6 s in duration followed by 301 s washout periods for heteromeric nAChR. […]

T1 sequence (P32297 32-505): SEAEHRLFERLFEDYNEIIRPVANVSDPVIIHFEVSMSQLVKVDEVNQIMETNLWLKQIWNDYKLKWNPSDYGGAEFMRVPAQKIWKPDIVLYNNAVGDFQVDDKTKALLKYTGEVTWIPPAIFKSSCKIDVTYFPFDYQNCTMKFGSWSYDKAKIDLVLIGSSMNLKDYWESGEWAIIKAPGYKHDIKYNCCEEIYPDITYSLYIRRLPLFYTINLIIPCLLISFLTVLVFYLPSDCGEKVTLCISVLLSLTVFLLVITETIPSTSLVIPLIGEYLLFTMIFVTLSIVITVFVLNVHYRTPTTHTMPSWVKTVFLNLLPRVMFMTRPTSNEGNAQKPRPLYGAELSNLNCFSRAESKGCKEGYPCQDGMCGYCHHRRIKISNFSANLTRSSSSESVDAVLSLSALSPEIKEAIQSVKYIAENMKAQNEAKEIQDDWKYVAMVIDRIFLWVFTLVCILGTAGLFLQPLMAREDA
T1 sequence (P30926 22-498): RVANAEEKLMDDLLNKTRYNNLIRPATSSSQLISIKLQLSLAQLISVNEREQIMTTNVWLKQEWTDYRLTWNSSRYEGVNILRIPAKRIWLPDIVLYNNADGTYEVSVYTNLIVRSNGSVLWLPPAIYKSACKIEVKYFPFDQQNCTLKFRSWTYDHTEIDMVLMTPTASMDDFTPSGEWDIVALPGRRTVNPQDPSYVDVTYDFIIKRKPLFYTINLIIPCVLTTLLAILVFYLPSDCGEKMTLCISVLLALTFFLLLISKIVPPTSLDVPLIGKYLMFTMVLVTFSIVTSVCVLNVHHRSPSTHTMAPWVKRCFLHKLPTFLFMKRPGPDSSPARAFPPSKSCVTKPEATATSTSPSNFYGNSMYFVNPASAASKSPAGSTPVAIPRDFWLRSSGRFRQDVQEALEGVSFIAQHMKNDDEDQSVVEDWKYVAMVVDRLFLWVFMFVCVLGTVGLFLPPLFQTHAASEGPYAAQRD

Compound	IMax (S1 Activation) (α3β4; peak currents relative to ACh maximum)	EC50 (α3β4; peak currents, unit inferred) [µM]	effect on 60 µM ACh response at 1 mM (α7 nAChR)	inhibition of responses to 60 µM ACh (α7 nAChR; compound co-applied at 100 µM, net charge)
C[S+](C)C.[I-] [Compound S1, trimethylsulfonium iodide]	1.18 ± 0.01	1420 ± 19.4	–	–
C[S+](C)c1ccc(O)cc1 [Compound S9, (4-hydroxyphenyl)dimethylsulfonium methyl sulfate]	–	–	significant inhibition	no inhibition
C[S+](C)c1cc([N+](=O)[O-])ccc1O.[Br-] [Compound S10, (2-hydroxy-5-nitrophenyl)dimethylsulfonium bromide]	–	–	increased the amplitude of the ACh-evoked responses	–
